Each structure is given as a SMILES string.

For the assay, the target named is T1, CE-2 in lysed human breast cancer cells (MCF-7) (Homo sapiens, UniProt O00748).
T1 construct: endogenous in cells; host or cells: MCF-7 (sonicated lysate)
T1 sequence (O00748 27-559): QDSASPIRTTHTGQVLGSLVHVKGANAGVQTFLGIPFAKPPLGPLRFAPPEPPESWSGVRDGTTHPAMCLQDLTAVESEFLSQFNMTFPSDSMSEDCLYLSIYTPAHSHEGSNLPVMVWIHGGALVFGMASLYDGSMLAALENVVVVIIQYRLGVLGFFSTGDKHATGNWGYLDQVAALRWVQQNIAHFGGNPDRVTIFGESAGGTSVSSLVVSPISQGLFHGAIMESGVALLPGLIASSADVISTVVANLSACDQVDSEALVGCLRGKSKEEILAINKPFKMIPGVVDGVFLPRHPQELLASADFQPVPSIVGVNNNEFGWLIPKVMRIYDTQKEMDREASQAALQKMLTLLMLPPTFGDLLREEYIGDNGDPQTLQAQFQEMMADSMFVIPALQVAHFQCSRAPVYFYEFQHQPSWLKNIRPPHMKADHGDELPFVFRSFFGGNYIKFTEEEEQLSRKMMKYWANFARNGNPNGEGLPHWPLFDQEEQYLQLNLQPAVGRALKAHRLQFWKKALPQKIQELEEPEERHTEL
Description: CE-2 activity on acetate esters in lysed MCF-7 cells, 1H NMR. The assay is classed as biochemical. The conditions noted are these: for k: 5 million lysed MCF-7 cells. On the procedure:
Different classes of short chain esters, fulfilling the requirements for the hyperpolarization technique (stable, soluble, low molecular weight compounds (<400 Da), were evaluated as substrates for carboxyl esterases with the aim to identify esters as similar or better substrates for carboxyl esterases than 1,3-^13C2 ethyl acetoacetate. In most human cell types, including a wide range of cancer cells and lymphocytes, the activity of carboxyl esterase is dominated by the activities of isoforms 1 and 2 (CE-1 and CE-2). To measure exclusively the hydrolysis of carboxyl esterase from the CE-1 isoform, an isolated enzyme from porcine liver was applied. To measure almost exclusively the contribution of carboxyl esterase activity from the CE-2 isoform, human breast cancer cells (MCF-7) were employed. These cells are known from literature to express CE-2 but not to express CE-1 (Byun et al, 2008, Cancer letters 266:238-48). A group of esters was investigated as substrates for CE-1, which contained different structural features. […] Also esters with large alcohol groups and small acid groups were investigated. In this group, the acid part of the molecule was always acetate and different structural properties of the alcohol were investigated. These consisted of esters of un-substituted alcohols (examples ethyl acetate and butyl acetate), esters of branched chain alcohols (examples t-butyl acetate, ethyl 3-acetoxy butanoate and 2-acetoxy propionate), esters of aromatic alcohols (example benzyl acetate), esters of diols (example ethyleneglycol diacetate), esters of triols (example triacetin). Esters of alpha-keto acids were too unstable to be investigated in this assay. Esters of larger alcohols are not water soluble and therefore not relevant substrates for the purpose of the invention. Similarly, a group of esters which contained different structural features was investigated as substrates for CE-2. CE-2 substrates are described in the literature to consist of a small acid group and a larger alcohol group. All included esters were acetate esters (i.e. esters of acetic acid) in the interest of keeping the acid moiety the smallest possible. The acetate esters measured for CE-2 activity were therefore the same as those measured in the second group of possible substrates for CE-1. The CE-2 experiments were performed with lysed breast cancer cells (MCF-7). MCF-7 cells were grown in RPMI medium with 10% FBS and antibiotics. They were at confluence harvested by trypsination and washed once with 5 ml PBS. They were spun down and resuspended in PBS to a concentration of 20 mill. cells/ml. The cells were hereafter sonicated on ice (50% amplitude, 1 min, 3 sec pulse). 250 μl sonicated cell suspension was mixed with 250 μl 400 mM phosphate buffer pH 7.3. […] The substrate was added (50 μl, 60 mM) and the tube turned for mixing before it was inserted into the spectrometer. An initial spectrum was acquired and the sample was hereafter placed at 37° C. for 1 hour in a water bath. The sample was again inserted into the magnet and a second spectrum was recorded. The data was analysed with MNOVA software and measured as percentage conversion of substrate calculated to account for the amount of substrate converted over 60 min. The numbers are given in μmol/hour.

For the molecule `CCOC(=O)CC(C)OC(C)=O` (stereo not shown) [ethyl 3-acetoxy butanoate], the “k (μmol/min), acetate ester” value (hydrolysis of the acetate ester function, lysed MCF-7 cells, 37° C., 1 hour) was 0.18 µmol/min. The “hydrolysis by CE-2, in words” value (lysed MCF-7 cells) is recorded as “hydrolysed to a similar extent”.

Turning to `CC(=O)OCC(COC(C)=O)OC(C)=O` [Tri-acetin], under “37° C., 1 hour”, the “k” value came out at 0.27 µmol/min. The “hydrolysis by CE-2, in words” value (lysed MCF-7 cells) is reported as “hydrolysed to a similar extent”.

On to `CC(=O)OCc1ccccc1` [Benzyl acetate], for which the “k” value (37° C., 1 hour) turned out to be 1.05 µmol/min. Further, the “hydrolysis by CE-2, in words” value (lysed MCF-7 cells) was “hydrolysed particularly fast” and the “hydrolysis by CE-2, in words” value (lysed MCF-7 cells, listed as benzyl acetate) is on record as “the best”.

(Values after patent US20150133341A1, “Intra-Operative Cancer Diagnosis Based on a Hyperpolarized Marker” (ALBEDA INNOVATIONS APS, priority 2012, published 2015).)
